Measurements published in the NIST ThermoML archive (doi:10.1021/je0498208).

What was measured:
[1] = Liquid; for viscosity: 101 kPa; for mass density: 101.3 kPa
[2] = xn = mol fraction of the nth substance listed; details: Liquid, x2 = 0; for viscosity: 101 kPa; for mass density: 101.3 kPa

O=CN1CCOCC1 [N-formylmorpholine]
[1]
Details	mass density [kg/m3]	viscosity [mPa·s]
298.15 K	1146.62	7.87
303.15 K	1142.26	6.75
313.15 K	1133.53	5.13
323.15 K	1124.82	4.03
333.15 K	1116.11	3.25
343.15 K	1107.39	2.68

O [water]
[1]
Details	mass density [kg/m3]	viscosity [mPa·s]
298.15 K	–	0.89
303.15 K	–	0.7976
313.15 K	–	0.6531
323.15 K	988.04	0.547
333.15 K	983.12	0.466
343.15 K	977.77	0.4049

O [water] + O=CN1CCOCC1
[2]
Details	mass density [kg/m3]	viscosity [mPa·s]
298.15 K	–	0.89
303.15 K	–	0.7976
313.15 K	–	0.6531
323.15 K	988.04	0.547
333.15 K	983.12	0.466
343.15 K	977.77	0.4049
